Assay results reported in publication PMC10482350, “Nucleoside diphosphate kinases 1 and 2 regulate a protective liver response to a high-fat diet” (Science Advances, 2023).

What was measured:
[1] = target: T1, NME1 (Mus musculus, UniProt P15532); experiment: histidine phosphorylation (native gel, native MS); release of NME1 from CoA beads; type: biochemical; design: full-length recombinant
[2] = target: T2, NME2 (Mus musculus, UniProt Q01768); experiment: CoA-agarose pull-down of GST-NME2 from bacterial extract; type: cell-based
T2 construct: full-length, GST-tagged

[3] = target: T1, NME1; experiment: ITC; crystal structure ([…] Å), native MS, nanoDSF; type: binding; design: full-length, His-tag cleaved by TEV
[4] = target: T1, NME1; experiment: dephosphorylation of phosphohistidine NME1 (immunoblot); type: biochemical; design: full-length recombinant
[5] = target: the molecule itself; experiment: native MS; recombinant purified NME1 without ligand or incubated with CoA, AcCoA, SucCoA, dephospho-CoA or ATP; charge states +22 and +21 of the hexamer; methods in the Supplementary Materials

T2 sequence (Q01768 whole entry): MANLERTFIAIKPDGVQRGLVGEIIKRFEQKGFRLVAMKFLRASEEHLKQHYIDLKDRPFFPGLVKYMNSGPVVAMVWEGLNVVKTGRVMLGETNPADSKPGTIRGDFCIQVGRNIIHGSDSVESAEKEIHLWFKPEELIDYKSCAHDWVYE

Q: How did the “histidine phosphorylation (native gel, native MS); release of NME1 from CoA bead” value [1] turn out when `Nc1ncnc2c1ncn2[C@@H]1O[C@H](COP(=O)(O)OP(=O)(O)OP(=O)(O)O)[C@@H](O)[C@H]1O` [ATP] was run?
A: recombinant murine NME1 purified from bacteria could be phosphorylated by ATP and subsequently dephosphorylated by ADP or guanosine diphosphate (GDP)

Q: What does the source list for `CC(C)(COP(=O)(O)OP(=O)(O)OC[C@H]1O[C@@H](n2cnc3c(N)ncnc32)[C@H](O)[C@@H]1OP(=O)(O)O)[C@@H](O)C(=O)NCCC(=O)NCCS` [CoA]?
A: CoA-agarose pull-down of GST-NME2 from bacterial extract [2]: NME2 exhibits an ATP-sensitive CoA binding activity comparable to that of NME1 (fig. S11A); Kd [3]: ~18 µM

Q: With `Nc1nc2c(ncn2[C@@H]2O[C@H](CO[P@](=O)(O)OP(=O)(O)O)[C@@H](O)[C@H]2O)c(=O)[nH]1` [GDP] as the molecule, how does the “dephosphorylation of phosphohistidine NME1 (immunoblot)” value [4] read?
A: phosphorylated by ATP and subsequently dephosphorylated by ADP or guanosine diphosphate (GDP)

B1: nucleoside diphosphate kinase 1 (NME1), recombinant murine (enzyme, mouse, UniProt P15532 1-152, looked up)
chain: MANSERTFIAIKPDGVQRGLVGEIIKRFEQKGFRLVGLKFLQASEDLLKEHYTDLKDRPFFTGLVKYMHSGPVVAMVWEGLNVVKTGRVMLGETNPADSKPGTIRGDFCIQVGRNIIHGSDSVKSAEKEISLWFQPEELVEYKSCAQNWIYE
notes: also called NDPK 1; WT NME1; source: E. coli BL21-Gold(D3), purified (HisTrap, TEV cleavage, Superdex 200 SEC); not shown: His6, N-terminal, cleaved
Q: How did the “stoichiometry N” value [5] turn out when B1 was run?
A: 6
